According to US20260250289A1, “BICYCLIC HETEROCYCLES AND THEIR USE AS WRN INHIBITORS” (Novartis AG, priority 2022, published 2026):

Legend:
[1] = biological target: T1, WRN helicase (aa N517-P1238) (Homo sapiens, UniProt Q14191); assay: WRN ATPase assay (DNA dependent ATP hydrolysis, ADP-Glo); type: biochemical; details: 3 hours pre-incubation, 300 micromolar ATP, FLAP26 DNA; geometric mean of at least 2
T1 construct: The core helicase motif of the WRN protein (aa N517-P1238) was produced for this assay; His (N); ZZ (N); 3C protease cleavage site (N); made in house; host or cells: Sf21 insect cells (baculovirus; virus and BIICs made in SF9)
Outline: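 DNA-dependent ATP hydrolysis detected as ADP by ADP-Glo luminescence, using 300 μM ATP, 0.2 nM FLAP26 substrate and 10 nM WRN aa N517-P1238 (Tris pH 7.5 buffer, 2 mM MgCl2, 50 mM NaCl). IC50s fitted from normalized duplicate half-log dilutions; reported as geometric means of at least 2 replicates.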

SW48 cells = assay: Proliferation assay SW48 (CellTiterGlo); type: cell-based; details: Homo sapiens, SW48, 96 h, SW48 colon carcinoma cells, 96 hours, CellTiterGlo; geometric mean of at least 2; read-out: Proliferation Assay SW48 GI50
Excerpt: The colon carcinoma cell lines SW48 (RRID: CVCL_1724), HCT 116 (RRID: CVCL_0291) and SNU-407 (RRID: CVCL_5058) were obtained from ATCC. The WRN-knockdown insensitive colon carcinoma cell line DLD-1 (RRID: CVCL_0248) was obtained from the Korean Cell Line Bank (KCLB), and used to generate a derivative in which the endogenous WRN gene copies were knocked out by CRISPR-mediated editing using standard CRISPR methods. The resulting cell line, DLD1-WRN-KO, was used to assess potential off-target compound effects.
SW48, SNU-407 and DLD1-WRN-KO cells were cultured in growth medium composed of RPMI-1640 (Amimed Cat #1-41F22-1), 2 mM L-Glutamine (Amimed Cat #5-10K50), 10 mM HEPES (Gibco Cat #15630-056), 1 mM sodium pyruvate (Amimed Cat #5-60F00-H), 1× Penicillin-Streptomycin (Amimed Cat #4-01F00-H) and 10% fetal calf serum (Amimed Cat #2-01F30-G, Lot #LB11566P). HCT 116 cells were cultured in growth medium composed of McCoys 5A (Amimed catalog #1-18F01-1), 2 mM L-Glutamine (Amimed Cat #5-10K50), 1× Penicillin-Streptomycin (Amimed Cat #4-01F00-H) and 10% fetal calf serum (Amimed Cat #2-01F30-G, Lot #LB11566P). All cells were maintained at 37° C. in a humidified 5% CO2 incubator.
Following filtration through a Steriflip-NY 20 μm filter (Millipore Cat #SCNY00020), trypsinized cells were seeded in 100 microliters growth medium at 2,000 (SW48) or 1,500 (SNU-407, DLD1-WRN-KO, HCT 116) cells/well into white, clear-bottom 96-well plates (Costar Cat #3903). Three replicate plates were prepared for each compound treatment condition. In addition, one plate (termed “day 0”) was prepared to quantify the number of viable cells at the time of compound addition. Following overnight incubation at 37° C. in a humidified 5% CO2 atmosphere, eight 3-fold serial dilutions of a given compound stock (obtained at a concentration of 10 mM in DMSO and stored at 4° C.) were dispensed directly into each of the triplicate assay plates using a HP 300D non-contact Digital Dispenser (TECAN). The final concentration of DMSO was normalized to 0.1% in all wells. 96 hours after compound addition, cellular ATP levels as a surrogate for cell viability was assessed following addition of 50 microliters CellTiterGlo (Promega Cat #G7573) reagent and luminescence quantification on a MPLEX multi-mode plate-reader (TECAN) following a 10 minute incubation at room temperature. The number of viable cells in the “day 0” plate were quantified identically on the day of compound addition.
For data analysis, the assay background signal that was determined in wells containing medium, but no cells, was subtracted from all other data points prior to further calculations. The extent of growth inhibition and potential cell kill was assessed by comparing the ATP levels (measured using CellTiterGlo, Promega) in compound-treated cells with those present at the time of compound addition. To this end, the following conditional concept was programmatically applied in HELIOS, an in-house software applying a multi-step decision tree to arrive at optimal concentration response curve fits (Gubler et al, SLAS DOI: 10.1177/2472555217752140) to calculate % growth (% G) for each compound-treated well: % G=(T−V0)/V0))*100 when T<V0, and % G=(T−V0)/(V−V0)))*100 when T≥V0, where V0 is the viability level at time of compound addition, while V and T represent vehicle-control and compound-treated viability levels, respectively, at the end of the compound incubation. 100%, 0% and −100% signify absence of growth inhibition, growth stasis, and complete cell kill, respectively. Compound concentrations leading to half-maximal growth inhibition (GI50) and residual cell viability at the highest tested compound concentration (Data (cmax), expressed in percent) were routinely calculated. Data analysis can also be carried out using commercially available software designed to derive IC50 values using 4-parameter fits (e.g. GraphPad Prism, XL fit). […]

DLD1-WRN-KO cells = assay: Proliferation assay DLD1-WRN-KO (CellTiterGlo, off-target effects); type: cell-based; details: 96 hours, geometric mean of at least 2
Outline: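 DLD1 cells with CRISPR knockout of WRN were exposed overnight-seeded to eight 3-fold compound dilutions (0.1% DMSO) for 96 h at 37 °C. Viability was read as ATP by CellTiterGlo luminescence against a day-0 plate, giving GI50 and residual viability at top concentration.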

T1 sequence (Q14191 517-1238): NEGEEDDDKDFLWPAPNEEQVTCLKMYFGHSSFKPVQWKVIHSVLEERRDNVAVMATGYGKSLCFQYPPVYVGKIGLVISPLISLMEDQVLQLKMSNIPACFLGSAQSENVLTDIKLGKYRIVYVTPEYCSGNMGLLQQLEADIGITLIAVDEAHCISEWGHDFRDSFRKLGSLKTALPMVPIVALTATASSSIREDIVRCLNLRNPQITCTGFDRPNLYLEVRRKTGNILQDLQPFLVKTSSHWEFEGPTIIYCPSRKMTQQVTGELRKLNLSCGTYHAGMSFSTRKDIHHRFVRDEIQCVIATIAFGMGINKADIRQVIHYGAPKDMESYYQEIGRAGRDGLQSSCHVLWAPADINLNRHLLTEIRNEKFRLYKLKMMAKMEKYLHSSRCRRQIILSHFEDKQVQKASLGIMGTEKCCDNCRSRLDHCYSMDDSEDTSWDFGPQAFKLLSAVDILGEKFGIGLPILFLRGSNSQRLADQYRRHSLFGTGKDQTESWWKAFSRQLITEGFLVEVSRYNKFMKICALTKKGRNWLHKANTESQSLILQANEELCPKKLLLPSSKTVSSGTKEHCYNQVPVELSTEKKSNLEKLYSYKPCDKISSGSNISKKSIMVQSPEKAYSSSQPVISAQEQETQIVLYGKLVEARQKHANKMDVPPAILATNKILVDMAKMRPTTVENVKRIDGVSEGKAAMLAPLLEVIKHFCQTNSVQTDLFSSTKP

IC50 [1]	GI50 (SW48 cells)	GI50 (DLD1-WRN-KO cells)	Structure (SMILES)
0.1 µM	2 µM	> 10 µM	CCc1ccc(NC(=O)Cn2c(C)c(N3CCN(C(C)=O)CC3)c(=O)n3nc(C4=CCOCC4)nc23)cc1C(F)(F)F [Example 72, 2-(6-(4-acetylpiperazin-1-yl)-2-(3,6-dihydro-2H-pyran-4-yl)-5-methyl-7-oxo-[1,2,4]triazolo[1,5-a]pyrimidin-4(7H)-yl)-N-(4-ethyl-3-(trifluoromethyl)phenyl)acetamide]
1 µM	7 µM	> 10 µM	CC(=O)N1CCN(c2c(C)n(CC(=O)Nc3ccc(C(F)(F)F)cc3)c3nc(C4=CCOCC4)nn3c2=O)CC1C (stereo not drawn) [Example 163, 2-(6-(4-acetyl-3-methylpiperazin-1-yl)-2-(3,6-dihydro-2H-pyran-4-yl)-5-methyl-7-oxo-[1,2,4]triazolo[1,5-a]pyrimidin-4(7H)-yl)-N-(4-(trifluoromethyl)phenyl)acetamide]
2 µM	6 µM	> 10 µM	CC(=O)N1CCN(c2c(C)n(CC(=O)Nc3cnc(C(F)(F)F)cc3Cl)c3nc(C4=CCOCC4)nn3c2=O)CC1 [Example 99, 2-(6-(4-acetylpiperazin-1-yl)-2-(3,6-dihydro-2H-pyran-4-yl)-5-methyl-7-oxo-[1,2,4]triazolo[1,5-a]pyrimidin-4(7H)-yl)-N-(4-chloro-6-(trifluoromethyl)pyridin-3-yl)acetamide]
0.05 µM	4 µM	> 10 µM	Cc1c(N2CCN(C(=O)c3c(O)cccc3O)CC2)c(=O)n2nc(C3=CCOCC3)nc2n1CC(=O)Nc1ccc(C(F)(F)F)cc1 [Example 15, 2-(2-(3,6-dihydro-2H-pyran-4-yl)-6-(4-(2,6-dihydroxybenzoyl)piperazin-1-yl)-5-methyl-7-oxo-[1,2,4]triazolo[1,5-a]pyrimidin-4(7H)-yl)-N-(4-(trifluoromethyl)phenyl)acetamide]
0.8 µM	5 µM	> 10 µM	CC(=O)N1CCN(c2c(C)n(CC(=O)Nc3ccc(Cl)c4c3CCC4)c3nc(C4=CCOCC4)nn3c2=O)CC1 [Example 129, 2-(6-(4-acetylpiperazin-1-yl)-2-(3,6-dihydro-2H-pyran-4-yl)-5-methyl-7-oxo-[1,2,4]triazolo[1,5-a]pyrimidin-4(7H)-yl)-N-(7-chloro-2,3-dihydro-1H-inden-4-yl)acetamide]
0.05 µM	0.5 µM	> 10 µM	Cc1c(N2CCN(C(=O)c3ccc(F)c(F)c3O)CC2)c(=O)n2nc(C3=CCOCC3)nc2n1CC(=O)Nc1ccc(C(F)(F)F)cc1 [Example 16, 2-(6-(4-(3,4-difluoro-2-hydroxybenzoyl)piperazin-1-yl)-2-(3,6-dihydro-2H-pyran-4-yl)-5-methyl-7-oxo-[1,2,4]triazolo[1,5-a]pyrimidin-4(7H)-yl)-N-(4-(trifluoromethyl)phenyl)acetamide]

Second part, the compound before the results:

Structure (SMILES)	IC50 [1]	GI50 (SW48 cells)	GI50 (DLD1-WRN-KO cells)
CCc1c(N2CCN(C(=O)c3cn(C)c(=O)[nH]3)CC2)c(=O)n2nc(C3=CCCC3)nc2n1CC(=O)Nc1ccc(C(F)(F)F)cc1 [Example 52, 2-(2-(cyclopent-1-en-1-yl)-5-ethyl-6-(4-(1-methyl-2-oxo-2,3-dihydro-1H-imidazole-4-carbonyl)piperazin-1-yl)-7-oxo-[1,2,4]triazolo[1,5-a]pyrimidin-4(7H)-yl)-N-(4-(trifluoromethyl)phenyl)acetamide]	0.05 µM	3 µM	> 10 µM
CCc1c(N2CCN(C(=O)c3ccc(F)c(F)c3O)CC2)c(=O)n2nc(C3=CCCCO3)nc2n1CC(=O)Nc1ccc(C(F)(F)F)cc1 [Example 39, 2-(6-(4-(3,4-difluoro-2-hydroxybenzoyl)piperazin-1-yl)-2-(3,4-dihydro-2H-pyran-6-yl)-5-ethyl-7-oxo-[1,2,4]triazolo[1,5-a]pyrimidin-4(7H)-yl)-N-(4-(trifluoromethyl)phenyl)acetamide]	0.03 µM	0.3 µM	4 µM
COC1CCN(c2nc3n(CC(=O)Nc4ccc(C(F)(F)F)cc4)c(C)c(N4CCN(C(C)=O)CC4)c(=O)n3n2)CC1 [Example 123, 2-(6-(4-acetylpiperazin-1-yl)-2-(4-methoxypiperidin-1-yl)-5-methyl-7-oxo-[1,2,4]triazolo[1,5-a]pyrimidin-4(7H)-yl)-N-(4-(trifluoromethyl)phenyl)acetamide]	0.7 µM	9 µM	> 10 µM
Cc1c(N2CCN(C(=O)c3c(F)ccc(F)c3O)C(C)C2)c(=O)n2nc(C3=CCOCC3)nc2n1CC(=O)Nc1ccc(C(F)(F)F)cc1 (stereo not drawn) [Example 148, 2-(6-(4-(3,6-difluoro-2-hydroxybenzoyl)-3-methylpiperazin-1-yl)-2-(3,6-dihydro-2H-pyran-4-yl)-5-methyl-7-oxo-[1,2,4]triazolo[1,5-a]pyrimidin-4(7H)-yl)-N-(4-(trifluoromethyl)phenyl)acetamide]	0.06 µM	0.3 µM	> 10 µM
CC(=O)N1CCN(c2c(C)n(CC(=O)Nc3ccc(C(F)(F)F)cc3)c3nc(N4CC=CCC4)nn3c2=O)CC1 [Example 121, 2-(6-(4-acetylpiperazin-1-yl)-2-(3,6-dihydropyridin-1(2H)-yl)-5-methyl-7-oxo-[1,2,4]triazolo[1,5-a]pyrimidin-4(7H)-yl)-N-(4-(trifluoromethyl)phenyl)acetamide]	0.7 µM	5 µM	> 10 µM
CCc1c(N2CCN(C(=O)c3ncc(F)c4cc[nH]c34)CC2)c(=O)n2nc(C3=CCOCC3)nc2n1CC(=O)Nc1ccc(C(F)(F)F)cc1C [Example 51, 2-(2-(3,6-dihydro-2H-pyran-4-yl)-5-ethyl-6-(4-(4-fluoro-1H-pyrrolo[2,3-c]pyridine-7-carbonyl)piperazin-1-yl)-7-oxo-[1,2,4]triazolo[1,5-a]pyrimidin-4(7H)-yl)-N-(2-methyl-4-(trifluoromethyl)phenyl)acetamide]	0.6 µM	2 µM	7 µM
CC(=O)N1CCN(c2c(C)n(CC(=O)Nc3ccc(C(F)(F)F)cc3)c3nc(C4=COCCO4)nn3c2=O)CC1 [Example 104, 2-(6-(4-acetylpiperazin-1-yl)-2-(5,6-dihydro-1,4-dioxin-2-yl)-5-methyl-7-oxo-[1,2,4]triazolo[1,5-a]pyrimidin-4(7H)-yl)-N-(4-(trifluoromethyl)phenyl)acetamide]	0.8 µM	8 µM	> 10 µM
